# ChEMBL document CHEMBL4265931, “Identification of dual Sigma1 receptor modulators/acetylcholinesterase inhibitors with antioxidant and neurotrophic properties, as neuroprotective agents” (Eur J Med Chem, 2018)
# The source made the active and inactive calls. No cut-off for these calls is given here.
# Key:
# in vitro [1] = conditions: human
# Description: Cytotoxicity against human SH-SY5Y cells assessed as cell viability at 50 uM after 24 hrs by MTS assay relative to control
# [2] = molecular target: Sigma non-opioid intracellular receptor 1 (Cavia porcellus, UniProt Q60492); set-up: species or system Hartley
# Description: Displacement of [3H]DTG from S1R in P2 fraction of Hartley guinea pig whole brain after 90 mins by liquid scintillation counting method
# [3] = Antioxidant activity assessed as DPPH free radical scavenging at 465 uM after 20 mins by UV-Vis spectrophotometric analysis relative to control; format: functional
# in vitro [4] = conditions: human; remark: listed apart in the source
# in vitro [5] = conditions: human; remark: listed apart in the source
# Description: Cytotoxicity against human SH-SY5Y cells assessed as cell viability at 10 uM after 24 hrs by MTS assay relative to control
# in vitro [6] = conditions: human; remark: listed apart in the source
# SH-SY5Y [7] = assay: Neuroprotection against H2O2-induced oxidative stress in human SH-SY5Y cells assessed as reduction in ROS generation at 10 uM preincubated for 3 hrs followed by DCFDA addition for 45 mins and subsequent co-treatment with compound and H2O2 for 24 hrs by fluorescence assay relative to control; format: functional
# in vitro [8] = conditions: human; remark: listed apart in the source
# Description: Cytotoxicity against human SH-SY5Y cells assessed as cell viability at 10 uM after 48 hrs by MTS assay relative to control
# in vitro [9] = conditions: human; remark: listed apart in the source
# Description: Cytotoxicity against human SH-SY5Y cells assessed as cell viability at 50 uM after 48 hrs by MTS assay relative to control
# [10] = Neurotrophic activity in Sprague-Dawley rat embryo DRG neuron assessed as increase in neurite length at 2.5 to 5 uM after 24 to 48 hrs relative to control; format: functional
# Acetylcholinesterase = Acetylcholinesterase (Electrophorus electricus, UniProt O42275); assay: Inhibition of electric eel AChE using acetylthiocholine iodide as substrate preincubated for 5 mins followed by substrate addition and measured after 2 mins by Ellman's method
# SH-SY5Y [11] = assay: Cytotoxicity against human SH-SY5Y cells assessed as reduction in cell viability after 24 hrs by MTS assay; format: cell-based
# [12] = Displacement of [3H]-ifenprodil from GluN1a/GluN2B (unknown origin) expressed in mouse L(tk-) cell membranes after 120 mins by scintillation counting analysis; set-up: species or system Homo sapiens
# SH-SY5Y [13] = assay: Cytotoxicity against human SH-SY5Y cells assessed as reduction in cell viability after 48 hrs by MTS assay; format: cell-based
# [14] = Neurotoxicity in Sprague-Dawley rat embryo DRG neuron at 10 uM after 48 hrs; format: toxicity
# [15] = Selectivity ratio of Ki for S2R in rat liver membranes to Ki for S1R in guinea pig brain cortex membranes; format: cell membranes
# [16] = molecular target: T1, Sigma intracellular receptor 2 (Rattus norvegicus, UniProt Q5U3Y7); assay: Displacement of [3H]-DTG from S2R in rat liver membranes after 120 mins by scintillation counting assay; format: cell membranes, Membrane
# T1 sequence (Q5U3Y7 whole entry): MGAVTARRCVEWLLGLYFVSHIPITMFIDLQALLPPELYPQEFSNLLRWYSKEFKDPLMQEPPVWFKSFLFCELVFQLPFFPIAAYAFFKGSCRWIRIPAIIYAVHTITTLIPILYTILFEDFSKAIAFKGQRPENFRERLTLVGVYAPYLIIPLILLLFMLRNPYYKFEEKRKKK
# [17] = Neurotoxicity in Sprague-Dawley rat embryo DRG neuron at 2.5 to 5 uM after 24 to 48 hrs; format: toxicity
# [18] = Neurotoxicity in Sprague-Dawley rat embryo DRG neuron at 10 uM after 24 hrs; format: toxicity
# Chain of Acetylcholinesterase (O42275 whole entry): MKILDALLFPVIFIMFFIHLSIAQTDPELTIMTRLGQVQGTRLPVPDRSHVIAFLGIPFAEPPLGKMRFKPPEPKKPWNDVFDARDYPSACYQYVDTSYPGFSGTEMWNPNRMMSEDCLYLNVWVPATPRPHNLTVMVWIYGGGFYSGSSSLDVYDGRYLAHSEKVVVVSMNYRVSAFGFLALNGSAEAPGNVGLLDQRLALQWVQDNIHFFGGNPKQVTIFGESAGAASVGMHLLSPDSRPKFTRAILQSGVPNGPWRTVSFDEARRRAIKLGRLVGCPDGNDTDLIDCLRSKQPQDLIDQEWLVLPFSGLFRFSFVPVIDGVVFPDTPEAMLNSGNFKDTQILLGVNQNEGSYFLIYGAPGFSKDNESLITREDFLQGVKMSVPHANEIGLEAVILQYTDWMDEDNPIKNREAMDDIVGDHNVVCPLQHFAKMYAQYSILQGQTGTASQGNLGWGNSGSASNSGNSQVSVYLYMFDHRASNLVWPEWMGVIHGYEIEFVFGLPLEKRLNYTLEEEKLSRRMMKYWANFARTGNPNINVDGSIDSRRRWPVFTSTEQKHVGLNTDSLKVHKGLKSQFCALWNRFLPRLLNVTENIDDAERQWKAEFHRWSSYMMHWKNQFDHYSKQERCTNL
# Chain of Sigma non-opioid intracellular receptor 1 (Q60492 whole entry): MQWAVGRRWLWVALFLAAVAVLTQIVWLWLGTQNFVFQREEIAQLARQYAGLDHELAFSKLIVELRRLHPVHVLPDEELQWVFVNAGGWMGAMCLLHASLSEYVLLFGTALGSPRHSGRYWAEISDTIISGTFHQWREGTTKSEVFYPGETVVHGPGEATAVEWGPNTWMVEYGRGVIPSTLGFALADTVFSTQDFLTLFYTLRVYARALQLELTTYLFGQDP
smiles,measurement,setting,value
COc1cc2c(cc1OC)C(=O)C(CC1CCN(Cc3ccccc3)CC1)C2 (centres undefined) [DONEPEZIL],"viability at 24 h, 50 µM",in vitro [1]; sh-sy5y,94.7%
same,Ki,[2],0.0146 µM
same,Activity,[3],4.4%
same,"viability at 24 h, 25 µM",in vitro [4]; sh-sy5y,99.3%
same,"viability at 24 h, 10 µM",in vitro [5]; sh-sy5y,100%
same,"viability at 48 h, 25 µM",in vitro [6]; sh-sy5y,80.4%
same,Activity,SH-SY5Y [7],inactive
same,"viability at 48 h, 10 µM",in vitro [8]; sh-sy5y,94.3%
same,"viability at 48 h, 50 µM",in vitro [9]; sh-sy5y,64.4%
Cl.O=C(CCN1CCCCC1)c1ccc(-c2ccccc2)cc1,"viability at 24 h, 50 µM",in vitro [1]; SH-SY5Y cells,64%
same,Activity,[3],15.5%
same,Activity,[10],20%
same,IC50,Acetylcholinesterase,13.1 µM
same,"viability at 24 h, 25 µM",in vitro [4]; SH-SY5Y cells,95.4%
same,IC50,"SH-SY5Y [11]; Homo sapiens, SH-SY5Y",37 µM
same,Activity,"SH-SY5Y [11]; human, sh-sy5y",Dose-dependent effect
same,"viability at 24 h, 10 µM",in vitro [5]; SH-SY5Y cells,104%
same,"viability at 48 h, 25 µM",in vitro [6]; SH-SY5Y cells,49.3%
same,Activity,SH-SY5Y [7],18%
same,"viability at 48 h, 10 µM",in vitro [8]; SH-SY5Y cells,95.9%
same,Ki,[12],> 1 µM
same,IC50,"SH-SY5Y [13]; Homo sapiens, SH-SY5Y",22 µM
same,Activity,"SH-SY5Y [13]; human, sh-sy5y",Dose-dependent effect
same,Activity,[14],Non-Toxic
same,"viability at 48 h, 50 µM",in vitro [9]; SH-SY5Y cells,44.7%
same,Ratio Ki,[15],30.8
same,Ki,[16],0.462 µM
same,Activity,[17],Non-Toxic
same,Activity,[18],Toxic
